Data reported in patent US8158628B2, “Sulfonylated 1,2,3,4-tetrahydropyrrolo[1,2-a]pyrazine compounds and their use as pharmaceuticals” (Gruenenthal GmbH, priority 2009, dated 2012).

Key:
B1R of the rat = biological target: T1, B1R of the rat (Rattus norvegicus, UniProt P97583); assay: FLIPR Ca2+ functional assay, B1R antagonism, rat B1R in CHO K1 cells; type: cell-based; details: test substance 10 μM; rB1R CHO K1 cells; agonist Des-Arg9 bradykinin at EC80; % of maximum achievable inhibition
T1 construct: expressed in transfected cells; host or cells: CHO K1 cells (Chinese hamster ovary), stably transfected
T1 sequence (P97583 1-337): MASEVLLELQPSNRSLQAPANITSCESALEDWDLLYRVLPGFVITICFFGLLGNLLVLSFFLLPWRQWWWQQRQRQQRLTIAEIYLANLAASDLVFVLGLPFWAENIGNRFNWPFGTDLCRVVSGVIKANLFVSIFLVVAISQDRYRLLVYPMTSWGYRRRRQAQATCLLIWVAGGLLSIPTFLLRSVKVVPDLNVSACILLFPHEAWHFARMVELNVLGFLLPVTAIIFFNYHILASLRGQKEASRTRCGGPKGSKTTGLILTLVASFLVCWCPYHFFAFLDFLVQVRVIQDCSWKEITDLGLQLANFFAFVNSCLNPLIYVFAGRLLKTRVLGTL
Procedure, shortened: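 Stably transfected CHO K1 cells loaded with Fluo-4; Ca2+ fluorescence read on FLIPR (ex 488/em 540 nm). Compound preincubated 10-20 min, then agonist at EC80: Lys-Des-Arg9 bradykinin (human) or Des-Arg9 bradykinin (rat). % inhibition vs maximal inhibition; IC50 from concentration series, n=2-3, N>=2.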

human B1R = biological target: T2, human B1R (Homo sapiens, UniProt P46663); assay: FLIPR Ca2+ functional assay, B1R antagonism, human B1R in CHO K1 cells; type: cell-based; details: test substance 10 μM; hB1R CHO K1 cells; agonist Lys-Des-Arg9 bradykinin at EC80; % of maximum achievable inhibition
T2 construct: expressed in transfected cells; host or cells: CHO K1 cells (Chinese hamster ovary), stably transfected
T2 sequence (P46663 1-353): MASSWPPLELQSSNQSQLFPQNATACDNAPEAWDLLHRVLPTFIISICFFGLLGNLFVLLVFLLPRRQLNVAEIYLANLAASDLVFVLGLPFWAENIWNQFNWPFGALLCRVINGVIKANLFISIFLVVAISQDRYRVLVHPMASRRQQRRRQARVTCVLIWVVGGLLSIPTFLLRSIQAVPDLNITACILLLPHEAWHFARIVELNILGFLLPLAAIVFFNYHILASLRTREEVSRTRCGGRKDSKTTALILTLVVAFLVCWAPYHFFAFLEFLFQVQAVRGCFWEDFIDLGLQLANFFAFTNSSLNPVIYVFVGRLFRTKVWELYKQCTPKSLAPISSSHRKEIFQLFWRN
Procedure: The agonistic or antagonistic action of substances on the bradykinin 1 receptor (B1R) of the human and rat species can be quantified with ectopically expressing cell lines (CHO K1 cells) and with the aid of a Ca^2+-sensitive dye (Fluo-4) using a fluorescent imaging plate reader (FLIPR). The value in % activation is based on the Ca^2+ signal after addition of Lys-Des-Arg^9 bradykinin (0.5 nM) or Des-Arg^9 bradykinin (100 nM). Antagonists lead to a suppression of the Ca^2+ influx following administration of the agonist. The % inhibition in comparison with the maximum achievable inhibition is indicated.
1. Functional Investigation on the Bradykinin 1 Receptor (B1R) The agonistic or antagonistic action of substances can be determined on the bradykinin 1 receptor (B1R) of the human and rat species with the following assay. According to this assay, the Ca^2+ inflow through the channel is quantified with the aid of a Ca^2+-sensitive dye (Fluo-4 type, Molecular Probes Europe BV, Leiden, Netherlands) in a fluorescent imaging plate reader (FLIPR, Molecular Devices, Sunnyvale, USA). 2. Method: Chinese hamster ovary cells (CHO K1 cells) which are stably transfected with the human B1R gene (hB1R cells) or the B1R gene of the rat (rB1R cells) are used. For functional investigations these cells are plated-out onto black 96-well plates with a clear base (BD Biosciences, Heidelberg, Germany or Greiner, Frickenhausen, Germany) in a density of 20,000-35,000 cells/well. Overnight the cells are incubated at 37° C. and 5% CO2 in culture medium (hB1R cells: Ham's Nutrient Mixture F12, Gibco Invitrogen GmbH, Karlsruhe, Germany or DMEM, Sigma-Aldrich, Taufkirchen, Germany; rB1R cells: D-MEM/F12, Gibco Invitrogen, Karlsruhe, Germany) with 10 vol. % FBS (foetal bovine serum, Gibco Invitrogen GmbH, Karlsruhe, Germany or PAN Biotech GmbH, Aidenbach, Germany).
On the following day the cells are loaded with 2.13 μM Fluo-4 (Molecular Probes Europe BV, Leiden, Netherlands) in HBSS buffer (Hank's buffered saline solution, Gibco Invitrogen GmbH, Karlsruhe, Germany) with 2.5 mM probenecid (Sigma-Aldrich, Taufkirchen, Germany) and 10 mM HEPES (Sigma-Aldrich, Taufkirchen, Germany) for 60 min at 37° C. The plates are subsequently washed twice with HBSS buffer, and HBSS buffer which additionally contains 0.1% BSA (bovine serum albumin; Sigma-Aldrich, Taufkirchen, Germany), 5.6 mM glucose and 0.05% gelatine (Merck KGaA, Darmstadt, Germany) is added. After a further incubation of 20 minutes at RT, the plates are inserted into the FLIPR for Ca^2+ measurement. Alternatively they are washed with buffer A (15 mM HEPES, 80 mM NaCl, 5 mM KCl, 1.2 mM CaCl2, 0.7 mM MgSO4, 2 g/l glucose, 2.5 mM probenecid) and loaded with buffer A with added 2.5 μM Fluo-4 and 0.025% Pluronic F127 (Sigma-Aldrich, Taufkirchen, Germany). The cells are then washed twice with buffer A and incubated for 30 minutes with buffer A, which additionally contains 0.05% BSA and 0.05% gelatine, at RT and then used for Ca^2+ measurement in the FLIPR. The Ca^2+-dependent fluorescence is measured here before and after addition of substances (λex=488 nm, λem=540 nm). The quantification is performed by measuring the highest fluorescence intensity (FC, fluorescence counts) over time.
The FLIPR protocol comprises two additions of substance. Test substances (10 μM) are first pipetted onto the cells and the Ca^2+ inflow is compared with the control (hB1R: Lys-Des-Arg^9 bradykinin >=50 nM; rB1R: Des-Arg^9 bradykinin 10 μM). The value in % activation based on the Ca^2+ signal after addition of Lys-Des-Arg^9 bradykinin (>=50 nM) or Des-Arg^9 bradykinin (10 μM) is obtained therefrom. After incubation for 10-20 minutes, Lys-Des-Arg^9 bradykinin (hB1R) or Des-Arg^9 bradykinin (rB1R) is applied in the EC80 concentration and the inflow of Ca^2+ is likewise determined.
Antagonists lead to a suppression of the Ca^2+ inflow. The % inhibition in comparison with the maximum achievable inhibition is calculated. […]

| SMILES | inhibition at 10 µM (B1R of the rat) | inhibition at 10 µM (human B1R) |
| --- | --- | --- |
| Cc1ccc(S(=O)(=O)N2CCn3cccc3C2CC(=O)N[C@@H]2CCCc3cc(CN4CCC(F)CC4)ccc32)cc1 (stereo partly drawn) [Example 44, N-[(1R)-6-[(4-Fluoro-piperidin-1-yl)-methyl]-1,2,3,4-tetrahydro-naphthalen-1-yl]-2-[2-(p-tolylsulfonyl)-1,2,3,4-tetrahydro-pyrrolo[1,2-a]pyrazin-1-yl]-acetamide] | 104% | 99.3% |
| COc1cc(C)c(S(=O)(=O)N2CCn3cccc3C2COCC(=O)N2CCC(OCCN3CCCC3)(c3cccnc3)CC2)c(C)c1 (centres unmarked) [Example 24, 2-((2-(4-Methoxy-2,6-dimethylphenylsulfonyl)-1,2,3,4-tetrahydropyrrolo[1,2-a]pyrazin-1-yl)methoxy)-1-(4-(pyridin-3-yl)-4-(2-(pyrrolidin-1-yl)ethoxy)piperidin-1-yl)ethanone] | 114% | 99.9% |
| COc1cc(C)c(S(=O)(=O)N2CCn3cccc3C2COCC(=O)NC2CCN(c3ccc(C(F)(F)F)cn3)CC2)c(C)c1 (centres unmarked) [Example 32, 2-[[2-[(4-Methoxy-2,6-dimethyl-phenyl)sulfonyl]-1,2,3,4-tetrahydro-pyrrolo[1,2-a]pyrazin-1-yl]-methoxy]-N-[1-[5-(trifluoromethyl)-pyridin-2-yl]-piperidin-4-yl]-acetamide] | 65.5% | 8.84% |
| Cc1cccc(Cl)c1S(=O)(=O)N1CCn2cccc2C1COCC(=O)N1CCC(Oc2ccncc2)CC1 (centres unmarked) [Example 6, 2-((2-(2-Chloro-6-methylphenylsulfonyl)-1,2,3,4-tetrahydropyrrolo[1,2-a]pyrazin-1-yl)methoxy)-1-(4-(pyridin-4-yloxy)piperidin-1-yl)ethanone] | 100% | 99.6% |
| Cc1ccc(S(=O)(=O)N2CCn3cccc3C2CC(=O)NC2CCCc3cc(CN4CCOCC4)ccc32)cc1 (centres unmarked) [Example 54, N-[6-(Morpholin-4-yl-methyl)-1,2,3,4-tetrahydro-naphthalen-1-yl]-2-[2-(p-tolylsulfonyl)-1,2,3,4-tetrahydro-pyrrolo[1,2-a]pyrazin-1-yl]-acetamide] | 100% | 99% |
| O=C(COCC1c2cccn2CCN1S(=O)(=O)c1ccccc1C(F)(F)F)N1CCC(Oc2ccncc2)CC1 (centres unmarked) [Example 5, 1-(4-(Pyridin-4-yloxy)piperidin-1-yl)-2-((2-(2-(trifluoromethyl)phenylsulfonyl)-1,2,3,4-tetrahydropyrrolo[1,2-a]pyrazin-1-yl)methoxy)ethanone] | 102% | 99.8% |
| COc1ccc2cc(S(=O)(=O)N3CCn4cccc4C3CC(=O)NC3CCc4cc(CNC(C)(C)C)ccc4C3)ccc2c1 (centres unmarked) [Example 31, N-(6-((tert-Butylamino)methyl)-1,2,3,4-tetrahydronaphthalen-2-yl)-2-(2-(6-methoxynaphthalen-2-ylsulfonyl)-1,2,3,4-tetrahydropyrrolo[1,2-a]-pyrazin-1-yl)acetamide] | 104% | 100% |
| Cc1ccc(S(=O)(=O)N2CCn3cccc3C2CC(=O)NC2CCc3cc(CN4CCN(C)CC4)ccc3C2)cc1Cl (centres unmarked) [Example 61, 2-[2-[(3-Chloro-4-methyl-phenyl)sulfonyl]-1,2,3,4-tetrahydro-pyrrolo[1,2-a]pyrazin-1-yl]-N-[6-[(4-methyl-piperazin-1-yl)-methyl]-1,2,3,4-tetrahydro-naphthalen-2-yl]-acetamide] | 100% | 99.7% |
| COc1cc(C)c(S(=O)(=O)N2CCn3cccc3C2CC(=O)N2CCC3(CC2)CCN(c2ccncc2)C3)c(C)c1 (centres unmarked) [Example 18, 2-(2-(4-Methoxy-2,6-dimethylphenylsulfonyl)-1,2,3,4-tetrahydro-pyrrolo[1,2-a]pyrazin-1-yl)-1-(2-(pyridin-4-yl)-2,8-diazaspiro[4.5]decan-8-yl)-ethanone] | 94.8% | 99.9% |
| CNCc1ccc2c(c1)CCCC2NC(=O)CC1c2cccn2CCN1S(=O)(=O)c1ccc(C)cc1 (centres unmarked) [Example 133, N-[6-(Methylamino-methyl)-1,2,3,4-tetrahydro-naphthalen-1-yl]-2-[2-(p-tolylsulfonyl)-1,2,3,4-tetrahydro-pyrrolo[1,2-a]pyrazin-1-yl]-acetamide] | 104% | 99.4% |
| Cc1ccc(S(=O)(=O)N2CCn3cccc3C2CC(=O)NC2CCCc3cc(CN4CCN(C)CC4)ccc32)cc1 (centres unmarked) [Example 78, N-[6-[(4-Methyl-piperazin-1-yl)-methyl]-1,2,3,4-tetrahydro-naphthalen-1-yl]-2-[2-(p-tolylsulfonyl)-1,2,3,4-tetrahydro-pyrrolo[1,2-a]pyrazin-1-yl]-acetamide] | 86.2% | 99.8% |
| COc1ccc2cc(S(=O)(=O)N3CCn4cccc4C3CC(=O)NC3CCCc4cc(CN(C)C)ccc43)ccc2c1 (centres unmarked) [Example 106, N-[6-(Dimethylaminomethyl)-1,2,3,4-tetrahydro-naphthalen-1-yl]-2-[2-[(6-methoxy-naphthalen-2-yl)sulfonyl]-1,2,3,4-tetrahydro-pyrrolo[1,2-a]pyrazin-1-yl]-acetamide] | 101% | 100% |
| CCC(C)NCc1ccc2c(c1)CCCC2NC(=O)CC1c2cccn2CCN1S(=O)(=O)c1ccc(C)c(Cl)c1 (centres unmarked) [Example 132, 2-[2-[(3-Chloro-4-methyl-phenyl)sulfonyl]-1,2,3,4-tetrahydro-pyrrolo[1,2-a]pyrazin-1-yl]-N-[6-[(1-methyl-propylamino)-methyl]-1,2,3,4-tetrahydro-naphthalen-1-yl]-acetamide] | 102% | 99.8% |
